Patent US9738634B2, “Heterocyclic amide compound and herbicide” (SYNGENTA PARTICIPATIONS AG, priority 2013, dated 2017)

What was measured:
Type in all cases: in vivo
green foxtail [1] = test: Test Example 4: weedkilling efficacy by foliar treatment; E: green foxtail; conditions: treatment dosage 315 g/ha
Summary of the method: (§1)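 Seeds are spot-sown into sterilized diluvial soil and covered with about 1.5 cm of soil. After 14 days' greenhouse growth at 25 to 30° C, plants are sprayed on stems and leaves with diluted emulsion at the stated g/ha rate, then scored at 3 weeks.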

bulrush [2] = test: Test Example 1: weedkilling efficacy, preemergent weed treatment in the submerged state; B: bulrush; conditions: treatment dosage 252 g/ha
Summary of the method: (§2)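 Alluvial soil in Wagner pots flooded to 4 cm; barnyard grass, bulrush and oval-leafed pondweed seeds sown, then 2.5-leaf rice seedlings transplanted. Same day, emulsified compound diluted in water to set g/ha dosages and applied to water surface; greenhouse 25–30 °C, effect scored by criteria after 3 weeks.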

transplanted rice = test: Test Example 1: preemergent weed treatment in the submerged state, effect on crop; a: transplanted rice; conditions: treatment dosage 252 g/ha
Summary of the method: as §2

fig-leafed goosefoot [3] = test: Test Example 4: weedkilling efficacy by foliar treatment; M: fig-leafed goosefoot; conditions: treatment dosage 315 g/ha
Summary of the method: as §1

beet [4] = test: Test Example 4: foliar treatment, effect on crop; f: beet; conditions: treatment dosage 315 g/ha
Summary of the method: as §1

barnyard grass [5] = test: Test Example 2: weedkilling efficacy, growth period weed treatment in the submerged state; A: barnyard grass; conditions: treatment dosage 252 g/ha
Summary of the method: (§3)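 First, alluvial soil in pots is flooded to 4 cm and mixed seed is sown. Next, plants grow in a greenhouse at 25 to 30° C until the 1-2 leaf stage. Then diluted emulsion is applied onto the water surface at the given g/ha rate, and injury is assessed after 3 weeks.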

oval-leafed pondweed [6] = test: Test Example 2: weedkilling efficacy, growth period weed treatment in the submerged state; C: oval-leafed pondweed; conditions: treatment dosage 252 g/ha
Summary of the method: as §3

beet [7] = test: Test Example 3: soil treatment, effect on crop; f: beet; conditions: treatment dosage 315 g/ha
Summary of the method: (§4)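 Crop and weed responses were judged three weeks after a uniform surface spray of the water-diluted emulsion at the given g/ha rate. Seeds sat beneath about 1.5 cm of sterilized diluvial soil, and boxes stood in a greenhouse at 25 to 30° C.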

wheat [8] = test: Test Example 3: soil treatment, effect on crop; e: wheat; conditions: treatment dosage 315 g/ha
Summary of the method: as §4

Italian ryegrass [9] = test: Test Example 3: weedkilling efficacy through soil treatment; I: Italian ryegrass; conditions: treatment dosage 315 g/ha
Summary of the method: as §4

corn [10] = test: Test Example 4: foliar treatment, effect on crop; c: corn; conditions: treatment dosage 315 g/ha
Summary of the method: as §1

Italian ryegrass [11] = test: Test Example 4: weedkilling efficacy by foliar treatment; I: Italian ryegrass; conditions: treatment dosage 315 g/ha
Summary of the method: as §1

black-grass [12] = test: Test Example 3: weedkilling efficacy through soil treatment; H: black-grass; conditions: treatment dosage 315 g/ha
Summary of the method: as §4

chickweed [13] = test: Test Example 4: weedkilling efficacy by foliar treatment; N: chickweed; conditions: treatment dosage 315 g/ha
Summary of the method: as §1

catchweed [14] = test: Test Example 3: weedkilling efficacy through soil treatment; O: catchweed; conditions: treatment dosage 315 g/ha
Summary of the method: as §4

crabgrass [15] = test: Test Example 4: weedkilling efficacy by foliar treatment; D: crabgrass; conditions: treatment dosage 315 g/ha
Summary of the method: as §1

corn [16] = test: Test Example 3: soil treatment, effect on crop; c: corn; conditions: treatment dosage 315 g/ha
Summary of the method: as §4

crabgrass [17] = test: Test Example 3: weedkilling efficacy through soil treatment; D: crabgrass; conditions: treatment dosage 315 g/ha
Summary of the method: as §4

chickweed [18] = test: Test Example 3: weedkilling efficacy through soil treatment; N: chickweed; conditions: treatment dosage 315 g/ha
Summary of the method: as §4

fig-leafed goosefoot [19] = test: Test Example 3: weedkilling efficacy through soil treatment; M: fig-leafed goosefoot; conditions: treatment dosage 315 g/ha
Summary of the method: as §4

Indian mallow [20] = test: Test Example 3: weedkilling efficacy through soil treatment; K: Indian mallow; conditions: treatment dosage 315 g/ha
Summary of the method: as §4

bulrush [21] = test: Test Example 2: weedkilling efficacy, growth period weed treatment in the submerged state; B: bulrush; conditions: treatment dosage 252 g/ha
Summary of the method: as §3

barnyard grass [22] = test: Test Example 1: weedkilling efficacy, preemergent weed treatment in the submerged state; A: barnyard grass; conditions: treatment dosage 252 g/ha
Summary of the method: as §2

green foxtail [23] = test: Test Example 3: weedkilling efficacy through soil treatment; E: green foxtail; conditions: treatment dosage 315 g/ha
Summary of the method: as §4

soybean [24] = test: Test Example 3: soil treatment, effect on crop; d: soybean; conditions: treatment dosage 315 g/ha
Summary of the method: as §4

soybean [25] = test: Test Example 4: foliar treatment, effect on crop; d: soybean; conditions: treatment dosage 315 g/ha
Summary of the method: as §1

redroot pigweed [26] = test: Test Example 3: weedkilling efficacy through soil treatment; L: redroot pigweed; conditions: treatment dosage 315 g/ha
Summary of the method: as §4

oval-leafed pondweed [27] = test: Test Example 1: weedkilling efficacy, preemergent weed treatment in the submerged state; C: oval-leafed pondweed; conditions: treatment dosage 252 g/ha
Summary of the method: as §2

birds-eye speedwell [28] = test: Test Example 3: weedkilling efficacy through soil treatment; p: birds-eye speedwell; conditions: treatment dosage 315 g/ha
Summary of the method: as §4

redroot pigweed [29] = test: Test Example 4: weedkilling efficacy by foliar treatment; L: redroot pigweed; conditions: treatment dosage 315 g/ha
Summary of the method: as §1

birds-eye speedwell [30] = test: Test Example 4: weedkilling efficacy by foliar treatment; p: birds-eye speedwell; conditions: treatment dosage 315 g/ha
Summary of the method: as §1

catchweed [31] = test: Test Example 4: weedkilling efficacy by foliar treatment; O: catchweed; conditions: treatment dosage 315 g/ha
Summary of the method: as §1

directly sown rice [32] = test: Test Example 3: soil treatment, effect on crop; b: directly sown rice; conditions: treatment dosage 315 g/ha
Summary of the method: as §4

black-grass [33] = test: Test Example 4: weedkilling efficacy by foliar treatment; H: black-grass; conditions: treatment dosage 315 g/ha
Summary of the method: as §1

Indian mallow [34] = test: Test Example 4: weedkilling efficacy by foliar treatment; K: Indian mallow; conditions: treatment dosage 315 g/ha
Summary of the method: as §1

wheat [35] = test: Test Example 4: foliar treatment, effect on crop; e: wheat; conditions: treatment dosage 315 g/ha
Summary of the method: as §1

directly sown rice [36] = test: Test Example 4: foliar treatment, effect on crop; b: directly sown rice; conditions: treatment dosage 315 g/ha
Summary of the method: as §1

CC1=C(c2ccc(Cl)s2)C(=O)N(C(C)(C)C(=O)Nc2cccc(Br)n2)CO1 [B-2-03]
E (green foxtail) weedkilling efficacy grade (green foxtail [1]): 1 (weed kill ratio 5% or more, less than 20%)
B (bulrush) weedkilling efficacy grade (bulrush [2]): 5 (weed kill ratio 90% or more, (practically complete withering))
a (transplanted rice) effect on crop grade (transplanted rice): 0 (weed kill ratio 5% or less (practically no effect))
M (fig-leafed goosefoot) weedkilling efficacy grade (fig-leafed goosefoot [3]): 3 (weed kill ratio 40% or more, less than 70%)
f (beet) effect on crop grade (beet [4]): 1 (weed kill ratio 5% or more, less than 20%)
A (barnyard grass) weedkilling efficacy grade (barnyard grass [5]): 5 (weed kill ratio 90% or more, (practically complete withering))
C (oval-leafed pondweed) weedkilling efficacy grade (oval-leafed pondweed [6]): 4 (weed kill ratio 70% or more, less than 90%)
f (beet) effect on crop grade (beet [7]): 0 (weed kill ratio 5% or less (practically no effect))
e (wheat) effect on crop grade (wheat [8]): 1 (weed kill ratio 5% or more, less than 20%)
I (Italian ryegrass) weedkilling efficacy grade (Italian ryegrass [9]): 3 (weed kill ratio 40% or more, less than 70%)
c (corn) effect on crop grade (corn [10]): 0 (weed kill ratio 5% or less (practically no effect))
I (Italian ryegrass) weedkilling efficacy grade (Italian ryegrass [11]): 3 (weed kill ratio 40% or more, less than 70%)
H (black-grass) weedkilling efficacy grade (black-grass [12]): 5 (weed kill ratio 90% or more, (practically complete withering))
N (chickweed) weedkilling efficacy grade (chickweed [13]): 0 (weed kill ratio 5% or less (practically no effect))
O (catchweed) weedkilling efficacy grade (catchweed [14]): 0 (weed kill ratio 5% or less (practically no effect))
D (crabgrass) weedkilling efficacy grade (crabgrass [15]): 3 (weed kill ratio 40% or more, less than 70%)
c (corn) effect on crop grade (corn [16]): 0 (weed kill ratio 5% or less (practically no effect))
D (crabgrass) weedkilling efficacy grade (crabgrass [17]): 3 (weed kill ratio 40% or more, less than 70%)
N (chickweed) weedkilling efficacy grade (chickweed [18]): 4 (weed kill ratio 70% or more, less than 90%)
M (fig-leafed goosefoot) weedkilling efficacy grade (fig-leafed goosefoot [19]): 0 (weed kill ratio 5% or less (practically no effect))
K (Indian mallow) weedkilling efficacy grade (Indian mallow [20]): 0 (weed kill ratio 5% or less (practically no effect))
B (bulrush) weedkilling efficacy grade (bulrush [21]): 5 (weed kill ratio 90% or more, (practically complete withering))
A (barnyard grass) weedkilling efficacy grade (barnyard grass [22]): 5 (weed kill ratio 90% or more, (practically complete withering))
E (green foxtail) weedkilling efficacy grade (green foxtail [23]): 3 (weed kill ratio 40% or more, less than 70%)
d (soybean) effect on crop grade (soybean [24]): 0 (weed kill ratio 5% or less (practically no effect))
d (soybean) effect on crop grade (soybean [25]): 1 (weed kill ratio 5% or more, less than 20%)
L (redroot pigweed) weedkilling efficacy grade (redroot pigweed [26]): 3 (weed kill ratio 40% or more, less than 70%)
C (oval-leafed pondweed) weedkilling efficacy grade (oval-leafed pondweed [27]): 5 (weed kill ratio 90% or more, (practically complete withering))
P (birds-eye speedwell) weedkilling efficacy grade (birds-eye speedwell [28]): 4 (weed kill ratio 70% or more, less than 90%)
L (redroot pigweed) weedkilling efficacy grade (redroot pigweed [29]): 1 (weed kill ratio 5% or more, less than 20%)
P (birds-eye speedwell) weedkilling efficacy grade (birds-eye speedwell [30]): 2 (weed kill ratio 20% or more, less than 40%)
O (catchweed) weedkilling efficacy grade (catchweed [31]): 0 (weed kill ratio 5% or less (practically no effect))
b (directly sown rice) effect on crop grade (directly sown rice [32]): 1 (weed kill ratio 5% or more, less than 20%)
H (black-grass) weedkilling efficacy grade (black-grass [33]): 3 (weed kill ratio 40% or more, less than 70%)
K (Indian mallow) weedkilling efficacy grade (Indian mallow [34]): 0 (weed kill ratio 5% or less (practically no effect))
e (wheat) effect on crop grade (wheat [35]): 0 (weed kill ratio 5% or less (practically no effect))
b (directly sown rice) effect on crop grade (directly sown rice [36]): 1 (weed kill ratio 5% or more, less than 20%)
